According to US20220024921A1, “1,3,4-OXADIAZOLONE COMPOUND AND PHARMACEUTICAL” (NIPPON SHINYAKU CO., LTD., priority 2018, published 2022):
Where a name gives a salt, the structure may show the parent alone.

How the values were obtained:
[1] = biological target: T1, PIM2 serine/threonine kinase (Homo sapiens, UniProt Q9P1W9); experiment: PIM2 serine/threonine kinase inhibitory effect; assay type: biochemical; details: PIM2 serine/threonine kinase activity; ATP 2 μM; 30° C., 30 minutes
T1 construct: purchased Carna Bioscience, Inc
Method: (§1) Each test substance was prepared to 10 mM with dimethylsulfoxide (DMSO), and further diluted with DMSO so as to have concentrations of 1000, 300, 100, 30, 10, 3, 1, 0.3, 0.1, 0.03, 0.01, and 0.001 μM. Moreover, each dilution was further diluted 33.3-fold with an assay buffer to prepare a test substance solution. The composition of the assay buffer was 50 mM HEPES (pH 7.0), 0.02% NaN3, 0.01% Bovine Serum Albumin, 0.1 mM Orthovanadate, 1 mM Dithiothreitol, and 5 mM MgCl2.
(§2) 5 μL of each test substance solution was added to 384-well plates (n=2), and then 2.5 μL of a substrate solution (substrate 3-biotin (Cisbio Bioassays SAS), final concentration in the reaction solution: 0.5 μM) and 2.5 μL of an ATP solution (in the cases of PIM1, 2, 3, the final concentrations in the reaction solutions were 40, 2, and 10 μM, respectively) were added, 5 μL of each of PIM1, 2, 3 serine/threonine kinase solutions (Carna Bioscience, Inc., the final concentrations in the reaction solutions were 0.15, 1.6, and 0.25 μg/ml, respectively) was finally added, and the mixture was reacted at 30° C. for 30 minutes. The test substance concentrations in the reaction solutions are 10000, 3000, 1000, 300, 100, 30, 10, 3, 1, 0.3, 0.1, and 0.01 nM.
(§3) Thereafter, 15 μL of each detection solution (62.5 nM Streptavidin-XL665 (Cisbio Bioassays SAS), […] STK antibody-Cryptate (Cisbio Bioassays SAS), 50 mM HEPES (pH 7.0), 0.8 M KF, 0.1% Bovine Serum Albumin, 20 mM ethylenediaminetetraacetic acid) was added to each well. After stirring, the mixture was reacted at 30° C. for 1 hour. Absorbance (OD620, OD665) at 620 and 665 nm was measured with a microplate reader (SpectraMax M5e, Molecular Devices, LLC).
(§4) Non-linear regression analysis was performed by an SAS system (SAS Institute Inc.) using the ratio (OD665/OD620) of the measured absorbance to calculate a test substance concentration (IC50) that inhibits PIM1 serine/threonine kinase activity by 50%.
(§5) For the compounds with the following Example numbers, in addition to the above PIM1 serine/threonine kinase activity (IC50), test substance concentrations (IC50) that inhibit PIM2 serine/threonine kinase activity and PIM3 serine/threonine kinase activity by 50% were calculated.

[2] = biological target: T2, PIM3 serine/threonine kinase (Homo sapiens, UniProt Q86V86); experiment: PIM3 serine/threonine kinase inhibitory effect; assay type: biochemical; details: PIM3 serine/threonine kinase activity; ATP 10 μM; 30° C., 30 minutes
T2 construct: purchased Carna Bioscience, Inc
Method: as §1, §2, §3, §4, §5

[3] = biological target: PIM1 transgenic cells (Ba/F3) (Homo sapiens, UniProt P11309); experiment: Proliferation inhibitory effect on PIM1 transgenic cells; assay type: cell-based, mouse; details: proliferation inhibition, 72 hours, Cell Counting Kit-8, read-out: PIM1 IC50
Method in brief: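 Mouse Ba/F3 pro-B cells were retrovirally transduced with human PIM1 so that their proliferation depends on PIM1. Cells were treated with compound at 1–10000 nM final for 72 h, then read by CCK-8 (OD450−OD650). Inhibition was set against DMSO (0%) and no-cell blank (100%), and IC50 was obtained by two-parameter logistic regression.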

[4] = biological target: T3, PIM1 serine/threonine kinase (Homo sapiens, UniProt P11309); experiment: PIM1 serine/threonine kinase inhibitory effect; assay type: biochemical; details: PIM1 serine/threonine kinase activity; ATP 40 μM; 30° C., 30 minutes
T3 construct: purchased Carna Bioscience, Inc
Method in brief: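 Compounds were tested in duplicate from 0.01 to 10000 nM final against PIM1 kinase (0.15 μg/ml). The reaction ran for 30 minutes at 30° C with 40 μM ATP and 0.5 μM biotin-tagged substrate at pH 7.0. Phosphorylation was read by time-resolved FRET (OD665/OD620) after 1 h; IC50 by non-linear fit.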

[5] = test system: graft-versus-host disease model CB6F1 mice; experiment: Lymphocyte proliferation inhibitory effect using graft-versus-host disease model animals (splenomegaly formation); assay type: in vivo; details: Mus musculus, 240 h, oral, twice a day for 10 days, GVHD model CB6F1 mice, read-out: Inhibition rate (%) (splenomegaly formation); for inhibition in vivo at 10 mg/kg: single dose 10 mg/kg; for inhibition in vivo at 20 mg/kg: single dose 20 mg/kg
Method: BALB/c mice (8-week-aged female) were euthanized, and then the spleen was removed from each mouse. Then, hemolysis treatment was performed to isolate spleen cells. The obtained spleen cells were intravenously transplanted into CB6F1 mice (8-week-aged female), which are C57BL/6 and BALB/c F1 mice, to prepare a model, and splenomegaly was induced. For transplantation, spleen cells for 1.2 BALB/c mouse were used for one CB6F1 mouse.
Each test substance shown in Table 64 was weighed and dissolved in a 0.5% methyl cellulose solution, thereby preparing test substance solutions of 0.3 to 10 mg/mL.
A vehicle (0.5% methyl cellulose solution) or test substance was orally administered to each CB6F1 mouse after transplantation at a dose of 3 to 50 mg/kg in terms of body weight twice a day for 10 days from the day after transplantation. The mouse was euthanized on the 11th day from the start of administration, then the spleen was removed therefrom, and the wet weight of the spleen was measured. For each of CB6F1 mice that had not undergone transplantation as a control group, the wet weight of the spleen was also measured.
The splenomegaly formation inhibition rate when the spleen weights of the mice to which the vehicle was administered after transplantation and the mice on which transplantation had not been performed were 0% and 100%, respectively, was calculated.

PIM1 transgenic cells (Ba/F3), sequence (P11309 whole entry, stated change not applied): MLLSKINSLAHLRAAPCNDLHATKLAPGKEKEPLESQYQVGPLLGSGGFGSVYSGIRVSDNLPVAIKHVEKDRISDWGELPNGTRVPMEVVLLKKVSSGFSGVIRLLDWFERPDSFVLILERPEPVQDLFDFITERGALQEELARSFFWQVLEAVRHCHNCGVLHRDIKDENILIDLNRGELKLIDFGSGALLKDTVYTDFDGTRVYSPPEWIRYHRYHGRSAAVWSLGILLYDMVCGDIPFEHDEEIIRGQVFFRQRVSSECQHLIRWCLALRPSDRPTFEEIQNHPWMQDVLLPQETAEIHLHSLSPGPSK
T3 sequence (P11309 whole entry): as the sequence (P11309 whole entry, stated change not applied) above
T1 sequence (Q9P1W9 whole entry): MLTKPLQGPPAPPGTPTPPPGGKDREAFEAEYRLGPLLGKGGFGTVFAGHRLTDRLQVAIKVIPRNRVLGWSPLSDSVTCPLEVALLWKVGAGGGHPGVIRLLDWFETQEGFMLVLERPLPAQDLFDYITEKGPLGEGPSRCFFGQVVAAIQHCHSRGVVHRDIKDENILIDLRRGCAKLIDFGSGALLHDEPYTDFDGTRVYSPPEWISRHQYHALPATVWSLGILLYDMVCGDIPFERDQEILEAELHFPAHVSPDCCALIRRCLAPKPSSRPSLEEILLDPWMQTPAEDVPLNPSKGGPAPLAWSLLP

Row | Structure (SMILES) | IC50 [1] [nM] | IC50 [2] [nM] | GI50 [3] [nM] | IC50 [4] [nM] | inhibition in vivo at 10 mg/kg [5] [%] | inhibition in vivo at 20 mg/kg [5] [%]
1 | O=c1[nH]nc(-c2ccc(C(F)(F)F)c(-c3cncc(N4CCNCC4)c3)c2)o1 [Example 25, 5-{3-[5-(piperazin-1-yl)pyridin-3-yl]-4-(trifluoromethyl)phenyl}-1,3,4-oxadiazol-2(3H)-one dihydrochloride] | 770 | 740 |  | 180 |  | 
2 | N[C@H]1CC[C@H](Nc2cc(-c3n[nH]c(=O)o3)ccc2C(F)(F)F)CC1 [Example 34, 5-[3-{[(1r,4r)-4-aminocyclohexyl]amino}-4-(trifluoromethyl)phenyl]-1,3,4-oxadiazol-2(3H)-one hydrochloride] | 25 | 16 | 910 | 4 |  | 
3 | C[C@@H](Nc1cc(-c2n[nH]c(=O)o2)ccc1C(F)(F)F)C1CCNCC1 [Example 59, 5-[3-{[(1R)-1-(piperidin-4-yl)ethyl]amino}-4-(trifluoromethyl)phenyl]-1,3,4-oxadiazol-2(3H)-one hydrochloride] | 98 | 85 | 320 | 16 |  | 
4 | NC[C@H]1CC[C@H](Nc2cc(-c3n[nH]c(=O)o3)ccc2C(F)(F)F)CC1 [Example 37, 5-[3-{[(1r,4r)-4-(aminomethyl)cyclohexyl]amino}-4-(trifluoromethyl)phenyl]-1,3,4-oxadiazol-2(3H)-one hydrochloride] | 11 | 10 | 280 | 2 |  | 
5 | CC(Nc1cc(-c2n[nH]c(=O)o2)ccc1C(F)(F)F)C1CCNCC1 (stereo not drawn) [Example 52, 5-[3-{[1-(piperidin-4-yl)ethyl]amino}-4-(trifluoromethyl)phenyl]-1,3,4-oxadiazol-2(3H)-one hydrochloride] | 19 | 12 | 59 | 4.2 |  | 
6 | N[C@H]1CC[C@H](CNc2cc(-c3n[nH]c(=O)o3)ccc2OC(F)(F)F)CC1 [Example 66, 5-[3-({[(1r,4r)-4-aminocyclohexyl]methyl}amino)-4-(trifluoromethoxy)phenyl]-1,3,4-oxadiazol-2(3H)-one hydrochloride] | 90 | 18 | 190 | 4.7 |  | 
7 | NCc1cccc(-c2cc(-c3n[nH]c(=O)o3)ccc2Cl)c1 [Example 18, 5-[3′-(aminomethyl)-6-chloro[1,1′-biphenyl]-3-yl]-1,3,4-oxadiazol-2(3H)-one hydrochloride] | 220 | 340 |  | 64 |  | 

Now those with a lower IC50 [4], led by results:

Row | IC50 [1] [nM] | IC50 [2] [nM] | GI50 [3] [nM] | IC50 [4] [nM] | Structure (SMILES) | inhibition in vivo at 10 mg/kg [5] [%] | inhibition in vivo at 20 mg/kg [5] [%]
8 | 19 | 5 | 44 | 1 | N[C@H]1CC[C@H](CNc2cc(-c3n[nH]c(=O)o3)ccc2Cl)CC1 [Example 61, 5-[3-({[(1r,4r)-4-aminocyclohexyl]methyl}amino)-4-chlorophenyl]-1,3,4-oxadiazol-2(3H)-one hydrochloride] |  | 
9 | 13 | 5 | 28 | 0.7 | CC(Nc1cc(-c2n[nH]c(=O)o2)ccc1C(F)(F)F)[C@H]1CC[C@H](N)CC1 (stereo partly drawn) [Example 63, 5-[3-({1-[(1r,4r)-4-aminocyclohexyl]ethyl}amino)-4-(trifluoromethyl)phenyl]-1,3,4-oxadiazol-2(3H)-one hydrochloride] |  | 
10 | 14 | 5 | 34 | 0.7 | N[C@H]1CC[C@H](CNc2cc(-c3n[nH]c(=O)o3)ccc2C(F)(F)F)CC1 [Example 55, 5-[3-({[(1r,4r)-4-aminocyclohexyl]methyl}amino)-4-(trifluoromethyl)phenyl]-1,3,4-oxadiazol-2(3H)-one hydrochloride] |  | 
11 | 7 | 4 | 37 | 1.1 | N[C@H]1CC[C@H](CNc2cc(-c3n[nH]c(=O)o3)cc(F)c2C(F)(F)F)CC1 [Example 69, 5-[3-({[(1r,4r)-4-aminocyclohexyl]methyl}amino)-5-fluoro-4-(trifluoromethyl)phenyl]-1,3,4-oxadiazol-2(3H)-one hydrochloride] |  | 
12 | 18 | 5 | 61 | 1.4 | N[C@H]1CC[C@H](CNc2cc(-c3n[nH]c(=O)o3)ccc2Br)CC1 [Example 68, 5-[3-({[(1r,4r)-4-aminocyclohexyl]methyl}amino)-4-bromophenyl]-1,3,4-oxadiazol-2(3H)-one hydrochloride] |  | 
13 |  |  | 15 | 1.3 | C[C@@H]1CNCC[C@@H]1[C@H](C)Nc1cc(-c2n[nH]c(=O)o2)cc(F)c1C(F)(F)F [Example 210, 5-[3-fluoro-5-({(1S)-1-[(3S,4S)-3-methylpiperidin-4-yl]ethyl}amino)-4-(trifluoromethyl)phenyl]-1,3,4-oxadiazol-2(3H)-one] | 44.9 | 48.4
14 |  |  | 17 | 1.8 | C[C@H](Nc1cc(-c2n[nH]c(=O)o2)cc(F)c1C(F)(F)F)[C@H]1CC[C@H](N)CC1 [Example 151, 5-[3-({(1S)-1-[(1r,4S)-4-aminocyclohexyl]ethyl}amino)-5-fluoro-4-(trifluoromethyl)phenyl]-1,3,4-oxadiazol-2(3H)-one hydrochloride] | 33.8 | 40.3
